test system: not listed separately; assay: Evaluation of ROS production according to lysine concentration; conditions: 10 μM compound with about 1.0 mM monomeric lysine, PBS pH 7.4, light of about 530 nm
Method: • i) 1.0 mM lysine (hereinafter, Lys) was mixed in PBS buffer solution (pH 7.4) and irradiated with light of about 530 nm. The fluorescence generated over time was measured using a Scinco FS-2, and results thereof are shown in FIG. 7A. • ii) The result of mixing 10 μM boron-containing compound B3 instead of the 1.0 mM lysine (Lys) is shown in FIG. 7B, iii) the result of mixing 10 μM boron-containing compound B3 and 0.1 mM lysine (Lys) instead of the 1.0 mM lysine (Lys) is shown in FIG. 7C, and iv) the result of mixing 10 μM boron-containing compound B3 and 1.0 mM lysine (Lys) instead of the 1.0 mM lysine (Lys) is shown in FIG. 7D.

Compound	reactive oxygen species generated when mixed with lysine
O=Cc1cc2ccccc2cc1NCc1ccccc1B(O)O [B3]	relatively large amount of reactive oxygen species is generated

target: albumin (HSA) (Homo sapiens, UniProt P02768); assay: Binding ability evaluation: dissociation constant from fluorescence change with increasing albumin; conditions: 100 nM boron-containing compound, 95 vol % PBS buffer and 5 vol % DMSO, stirred 2 hours, fluorescence at 530 nm
Sequence (P02768 25-609): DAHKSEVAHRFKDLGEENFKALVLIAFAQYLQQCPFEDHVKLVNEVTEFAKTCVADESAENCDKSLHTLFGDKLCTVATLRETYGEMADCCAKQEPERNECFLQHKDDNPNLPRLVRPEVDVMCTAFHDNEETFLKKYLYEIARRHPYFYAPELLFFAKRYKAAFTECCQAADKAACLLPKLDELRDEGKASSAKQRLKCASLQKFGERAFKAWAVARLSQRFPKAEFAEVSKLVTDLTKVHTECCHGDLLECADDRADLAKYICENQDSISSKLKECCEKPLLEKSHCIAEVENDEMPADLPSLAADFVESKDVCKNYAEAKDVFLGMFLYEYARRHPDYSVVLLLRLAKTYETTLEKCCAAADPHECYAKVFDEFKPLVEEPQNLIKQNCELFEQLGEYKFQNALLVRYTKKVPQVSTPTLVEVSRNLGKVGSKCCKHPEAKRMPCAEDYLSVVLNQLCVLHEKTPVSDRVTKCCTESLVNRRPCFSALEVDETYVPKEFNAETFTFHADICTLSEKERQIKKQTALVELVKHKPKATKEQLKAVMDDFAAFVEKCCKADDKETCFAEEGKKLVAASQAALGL
Method: 100 nM boron-containing compound B1 and albumin (HSA) were mixed in 95 vol % PBS buffer and 5 vol % dimethyl sulfoxide (DMSO) and stirred for 2 hours. The change in fluorescence intensity (F.I.) was measured while increasing the concentration of the albumin, and the dissociation constant (Kd) calculated based thereon is shown in FIG. 2.
For example, 0:1 represents the case where 100 nM albumin (HSA) was used without using a boron-containing compound, 1:0 represents the case where 100 nM boron-containing compound B1 was used and no albumin (HSA) was used, 1:2 represents the case where 100 nM boron-containing compound B1 and 200 nM albumin (HSA) were used, and 1:16 represents the case where 100 nM boron-containing compound B1 and 1600 nM albumin (HSA) were used.
The dissociation constants (Kd) of boron-containing compounds B2 to B5 were calculated in the same method as used to produce boron-containing compound B1.

Compound	Kd
O=Cc1cc2ccccc2cc1NCc1ccccc1B(O)O [B3]	2.48 µM
O=C(c1ccccc1)c1ccccc1NCc1ccccc1B(O)O [B4]	2.22 µM

These reach a lower Kd. Values come first.

Kd	Compound
0.571 µM	O=Cc1cc2c(cc1NCc1ccccc1B(O)O)OCO2 [B5]
0.383 µM	O=Cc1cc(Br)ccc1NCc1ccccc1B(O)O [B2]
0.185 µM	O=Cc1ccccc1NCc1ccccc1B(O)O [B1]
